pEC50: −log10 of the molar value. Bridge positions count the residues as written; N and C are the ends. Square brackets hold non-standard residues; d marks the D form. Peptide text beside a SMILES is read from it. Hyp = O=C(O)[C@@H]1C[C@@H](O)CN1; Cit = NC(=O)NCCC[C@H](N)C(=O)O
How the values were obtained:
[1] = biological target: T1, hAMY3 receptor (Homo sapiens, UniProt O60896+P30988); assay: cAMP assay for in vitro receptor activation, hAMY3-R; format: cell-based; conditions: cAMP assay, hAMY3 receptor; read-out: hAMY3R EC50
T1 sequence (P30988 25-474): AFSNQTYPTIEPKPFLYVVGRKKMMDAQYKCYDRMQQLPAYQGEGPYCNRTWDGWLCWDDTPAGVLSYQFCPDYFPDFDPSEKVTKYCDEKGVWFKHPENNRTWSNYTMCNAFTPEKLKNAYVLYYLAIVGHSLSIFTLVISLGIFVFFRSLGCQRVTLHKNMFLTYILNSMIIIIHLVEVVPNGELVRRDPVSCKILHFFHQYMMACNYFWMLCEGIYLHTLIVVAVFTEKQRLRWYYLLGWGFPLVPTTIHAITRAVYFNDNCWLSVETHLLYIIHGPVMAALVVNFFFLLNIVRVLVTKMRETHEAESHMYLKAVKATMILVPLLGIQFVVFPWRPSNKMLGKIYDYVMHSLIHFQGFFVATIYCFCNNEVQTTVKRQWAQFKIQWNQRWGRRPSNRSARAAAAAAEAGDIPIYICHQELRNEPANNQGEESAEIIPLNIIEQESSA
T1 sequence (O60896 24-148 partner): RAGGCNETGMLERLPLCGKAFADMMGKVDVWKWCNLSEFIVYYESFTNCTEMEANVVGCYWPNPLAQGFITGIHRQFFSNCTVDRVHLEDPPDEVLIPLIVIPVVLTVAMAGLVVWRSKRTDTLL
Outline: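 Accumulated cAMP was detected by time-resolved FRET one hour after reagent addition. Beforehand, hAMY3-R-overexpressing monoclonal cells (2000/well, DPBS, 0.05% casein, 0.5 mM IBMX) received graded doses of compound for 30 min at room temperature; human amylin served as positive control.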

[2] = Physical stability of peptide analogues (Thioflavin T fibrillation); format: physicochemical; conditions: maximum ThT signal normalized between hAMY maximum and buffer background; 40° C., shaking, four days; pH 7 per table title
Outline: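 Samples are stressed at 40 °C for four days, being shaken at 700 rpm before each 10-min fluorescence reading of 4 μM Thioflavin T. Buffers were pH 4 acetate or pH 7 phosphate. Reported values are smoothed maximum ThT signals as a percentage of the hAMY-to-background range.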

Structure (SMILES)	pEC50 [1]	Max ThT signal (%) [2] [%]
CC[C@H](C)[C@H](NC(=O)[C@H](CCC(N)=O)NC(=O)[C@H](Cc1c[nH]cn1)NC(=O)[C@H](C)NC(=O)[C@H](CC(C)C)NC(=O)[C@H](CCCNC(N)=O)NC(=O)[C@H](CCC(N)=O)NC(=O)[C@@H](NC(=O)[C@@H](NC(=O)[C@@H]1CSSC[C@H](NC(=O)CN)C(=O)N[C@@H](CCCNC(=N)N)C(=O)N[C@@H](Cc2ccccc2)C(=O)NCC(=O)N[C@@H]([C@@H](C)O)C(=O)N1)[C@@H](C)O)C(C)C)C(=O)N[C@@H](Cc1ccc(O)cc1)C(=O)N[C@@H](CCC(N)=O)C(=O)N[C@@H](Cc1ccccc1)C(=O)N[C@H](C(=O)N[C@@H](CC(=O)O)C(=O)N[C@@H](CCCCN)C(=O)N[C@@H](CC(=O)O)C(=O)N[C@@H](CCCCN)C(=O)N[C@@H](CC(=O)O)C(=O)N[C@@H](CC(N)=O)C(=O)N[C@H](C(=O)N[C@@H](C)C(=O)N1CCC[C@H]1C(=O)N[C@@H](CCCNC(=N)N)C(=O)N[C@H](C(=O)N[C@@H](CC(N)=O)C(=O)N[C@H](C(=O)NCC(=O)N1CCC[C@H]1C(=O)N[C@@H](CCC(N)=O)C(=O)NCC(=O)N1C[C@H](O)C[C@H]1C(N)=O)C(C)C)[C@@H](C)O)C(C)C)[C@@H](C)O [compound 267] (H-GCRFGTCTVQ[Cit]LAHQIYQFTDKDKDNVAPRTNVGPQG[Hyp]-NH2; disulfide 2-7; N-terminus assumed)	11.15	30.900
CC[C@H](C)[C@H](NC(=O)[C@H](CCC(N)=O)NC(=O)[C@H](Cc1c[nH]cn1)NC(=O)[C@H](C)NC(=O)[C@H](CC(C)C)NC(=O)[C@H](CCCNC(N)=O)NC(=O)[C@H](CCC(N)=O)NC(=O)[C@@H](NC(=O)[C@@H](NC(=O)[C@@H]1CSSC[C@H](NC(=O)CN)C(=O)N[C@@H](CCCNC(=N)N)C(=O)N[C@@H](Cc2ccccc2)C(=O)NCC(=O)N[C@@H]([C@@H](C)O)C(=O)N1)[C@@H](C)O)C(C)C)C(=O)N[C@@H](Cc1ccc(O)cc1)C(=O)N[C@@H](CCC(N)=O)C(=O)N[C@@H](Cc1ccccc1)C(=O)N[C@H](C(=O)N[C@@H](CC(=O)O)C(=O)N[C@@H](CCCCN)C(=O)N[C@@H](CC(=O)O)C(=O)N[C@@H](CCCCN)C(=O)N[C@@H](CC(=O)O)C(=O)N[C@@H](CC(N)=O)C(=O)N[C@H](C(=O)N[C@@H](C)C(=O)N1CCC[C@H]1C(=O)N[C@@H](CCCNC(=N)N)C(=O)N[C@H](C(=O)N[C@@H](CC(N)=O)C(=O)N[C@H](C(=O)NCC(=O)N1CCC[C@H]1C(=O)N[C@@H](CC(N)=O)C(=O)NCC(=O)N1C[C@H](O)C[C@H]1C(N)=O)C(C)C)[C@@H](C)O)C(C)C)[C@@H](C)O [compound 270] (H-GCRFGTCTVQ[Cit]LAHQIYQFTDKDKDNVAPRTNVGPNG[Hyp]-NH2; disulfide 2-7; N-terminus assumed)	11.52	25.450
CC[C@H](C)[C@H](NC(=O)[C@H](CCC(N)=O)NC(=O)[C@H](Cc1c[nH]cn1)NC(=O)[C@H](C)NC(=O)[C@H](CC(C)C)NC(=O)[C@H](CCCNC(N)=O)NC(=O)[C@H](CCC(N)=O)NC(=O)[C@@H](NC(=O)[C@@H](NC(=O)[C@@H]1CSSC[C@H](NC(=O)CN)C(=O)N[C@@H](CCCNC(=N)N)C(=O)N[C@@H](Cc2ccccc2)C(=O)NCC(=O)N[C@@H]([C@@H](C)O)C(=O)N1)[C@@H](C)O)C(C)C)C(=O)N[C@@H](Cc1ccc(O)cc1)C(=O)N[C@@H](CCC(N)=O)C(=O)N[C@@H](Cc1ccccc1)C(=O)N[C@H](C(=O)N[C@@H](CC(=O)O)C(=O)N[C@@H](CCCCN)C(=O)N[C@@H](CC(=O)O)C(=O)N[C@@H](CCCCN)C(=O)N[C@@H](CC(=O)O)C(=O)N[C@@H](CC(N)=O)C(=O)N[C@H](C(=O)N[C@@H](C)C(=O)N1CCC[C@H]1C(=O)N[C@@H](CCCNC(=N)N)C(=O)N[C@H](C(=O)N[C@@H](CC(N)=O)C(=O)N[C@H](C(=O)N[C@@H](CO)C(=O)N1CCC[C@H]1C(=O)N[C@@H](CC(N)=O)C(=O)NCC(=O)N[C@@H](Cc1ccc(O)cc1)C(N)=O)C(C)C)[C@@H](C)O)C(C)C)[C@@H](C)O [compound 271] (H-GCRFGTCTVQ[Cit]LAHQIYQFTDKDKDNVAPRTNVSPNGY-NH2; disulfide 2-7; N-terminus assumed)	11.00	10.850
CC[C@H](C)[C@H](NC(=O)[C@H](CCCCN)NC(=O)[C@@H](NC(=O)[C@H](CCCNC(=N)N)NC(=O)[C@@H]1CCCN1C(=O)[C@H](C)NC(=O)[C@@H](NC(=O)[C@H](CC(N)=O)NC(=O)[C@H](CC(=O)O)NC(=O)[C@H](CCCCN)NC(=O)[C@H](CC(=O)O)NC(=O)[C@H](CCCCN)NC(=O)[C@H](CC(=O)O)NC(=O)[C@@H](NC(=O)[C@H](Cc1ccccc1)NC(=O)[C@H](CCC(N)=O)NC(=O)[C@H](Cc1ccc(O)cc1)NC(=O)[C@@H](NC(=O)[C@H](CCC(N)=O)NC(=O)[C@H](Cc1c[nH]cn1)NC(=O)[C@H](C)NC(=O)[C@H](CC(C)C)NC(=O)[C@H](CCCNC(N)=O)NC(=O)[C@H](CCC(N)=O)NC(=O)[C@@H](NC(=O)[C@@H](NC(=O)[C@@H]1CSSC[C@H](NC(=O)CN)C(=O)N[C@@H](CCCNC(=N)N)C(=O)N[C@@H](Cc2ccccc2)C(=O)NCC(=O)N[C@@H]([C@@H](C)O)C(=O)N1)[C@@H](C)O)C(C)C)[C@@H](C)CC)[C@@H](C)O)C(C)C)[C@@H](C)O)C(=O)NCC(=O)N1CCC[C@H]1C(=O)N[C@@H](CCC(N)=O)C(=O)NCC(=O)N1C[C@H](O)C[C@H]1C(N)=O [compound 274] (H-GCRFGTCTVQ[Cit]LAHQIYQFTDKDKDNVAPRTKIGPQG[Hyp]-NH2; disulfide 2-7; N-terminus assumed)	10.72	26.800
CC[C@H](C)[C@H](NC(=O)[C@H](CCC(N)=O)NC(=O)[C@H](Cc1c[nH]cn1)NC(=O)[C@H](C)NC(=O)[C@H](CC(C)C)NC(=O)[C@H](CCCNC(N)=O)NC(=O)[C@H](CCC(N)=O)NC(=O)[C@@H](NC(=O)[C@@H](NC(=O)[C@@H]1CSSC[C@H](NC(=O)CN)C(=O)N[C@@H](CCCNC(=N)N)C(=O)N[C@@H](Cc2ccccc2)C(=O)NCC(=O)N[C@@H]([C@@H](C)O)C(=O)N1)[C@@H](C)O)C(C)C)C(=O)N[C@@H](Cc1ccc(O)cc1)C(=O)N[C@@H](CCC(N)=O)C(=O)N[C@@H](Cc1ccccc1)C(=O)N[C@H](C(=O)N[C@@H](CC(=O)O)C(=O)N[C@@H](CCCCN)C(=O)N[C@@H](CC(=O)O)C(=O)N[C@@H](CCCCN)C(=O)N[C@@H](CC(=O)O)C(=O)N[C@@H](CC(N)=O)C(=O)N[C@H](C(=O)N[C@@H](C)C(=O)N1CCC[C@H]1C(=O)N[C@@H](CCCNC(=N)N)C(=O)N[C@H](C(=O)N[C@@H](CC(N)=O)C(=O)N[C@H](C(=O)N[C@@H](CO)C(=O)N1CCC[C@H]1C(=O)N[C@@H](CCC(N)=O)C(=O)NCC(=O)N[C@@H](Cc1ccc(O)cc1)C(N)=O)C(C)C)[C@@H](C)O)C(C)C)[C@@H](C)O [compound 278] (H-GCRFGTCTVQ[Cit]LAHQIYQFTDKDKDNVAPRTNVSPQGY-NH2; disulfide 2-7; N-terminus assumed)	10.96	13.350
CC(C)C[C@H](NC(=O)[C@H](CCCNC(N)=O)NC(=O)[C@H](CCC(N)=O)NC(=O)[C@@H](NC(=O)[C@@H](NC(=O)[C@@H]1CSSC[C@H](NC(=O)CN)C(=O)N[C@@H](CCCNC(=N)N)C(=O)N[C@@H](Cc2ccccc2)C(=O)NCC(=O)N[C@@H]([C@@H](C)O)C(=O)N1)[C@@H](C)O)C(C)C)C(=O)N[C@@H](C)C(=O)N[C@@H](Cc1c[nH]cn1)C(=O)N[C@@H](Cc1ccccc1)C(=O)N[C@@H](CC(C)C)C(=O)N[C@@H](Cc1ccc(O)cc1)C(=O)N[C@@H](CCC(N)=O)C(=O)N[C@@H](Cc1ccccc1)C(=O)N[C@H](C(=O)N[C@@H](CC(=O)O)C(=O)N[C@@H](CCCCN)C(=O)N[C@@H](CC(=O)O)C(=O)N[C@@H](CCCCN)C(=O)N[C@@H](CC(=O)O)C(=O)N[C@@H](CC(N)=O)C(=O)N[C@H](C(=O)N[C@@H](C)C(=O)N1CCC[C@H]1C(=O)N[C@@H](CCCNC(=N)N)C(=O)N[C@H](C(=O)N[C@@H](CCCCN)C(=O)N[C@H](C(=O)NCC(=O)N[C@@H](CO)C(=O)N[C@@H](CC(N)=O)C(=O)NCC(=O)N[C@@H](Cc1ccc(O)cc1)C(N)=O)C(C)C)[C@@H](C)O)C(C)C)[C@@H](C)O [compound 279] (H-GCRFGTCTVQ[Cit]LAHFLYQFTDKDKDNVAPRTKVGSNGY-NH2; disulfide 2-7; N-terminus assumed)	10.89	13.450

— US12139520B2 (priority 2020, dated 2024)
